The results in this text go back to ChEMBL document CHEMBL4024723, “Design, synthesis, and biological activity of novel tetrahydropyrazolopyridone derivatives as FXa inhibitors with potent anticoagulant activity” (Bioorg Med Chem, 2017).

In assay [1] the target is T1, Coagulation factor X (Homo sapiens, UniProt P00742). Nature of the assay: Inhibition of human F10a assessed as decrease in p-nitroaniline cleavage from pefachrome F10a at 5 uM preincubated for 10 mins followed by substrate addition measured after 20 mins relative to control.
The subject of another assay is Rattus norvegicus. The assay is described as follows: Inhibition of thrombus formation in Sprague-Dawley rat at 10 mg/kg, po after 2 hrs relative to control. In kind it is functional.
Assay [2] addresses T1, Coagulation factor X. The assay is described as follows: Inhibition of human F10a assessed as decrease in p-nitroaniline cleavage from pefachrome F10a preincubated for 10 mins followed by substrate addition measured after 20 mins.
Assay [3] has as its system Plasma. Nature of the assay: Anticoagulant activity in rabbit plasma assessed as concentration required to double activated partial thromboplastin time. It counts as functional, Oryctolagus cuniculus.
Assay [4] has as its system Plasma. Nature of the assay: Anticoagulant activity in human plasma assessed as concentration required to double activated partial thromboplastin time. It counts as functional.
In assay [5] the target is T1, Coagulation factor X. The assay is described as follows: Inhibition of human F10a assessed as decrease in p-nitroaniline cleavage from pefachrome F10a at 0.5 uM preincubated for 10 mins followed by substrate addition measured after 20 mins relative to control.
Assay [6] concerns Plasma. The assay is described as follows: Anticoagulant activity in human plasma assessed as concentration required to double prothrombin time. In kind it is functional.
Assay [7] relates to Plasma. The assay is described as follows: Anticoagulant activity in rabbit plasma assessed as concentration required to double prothrombin time. It counts as functional, Oryctolagus cuniculus.

T1 sequence (P00742 41-179 limits assumed): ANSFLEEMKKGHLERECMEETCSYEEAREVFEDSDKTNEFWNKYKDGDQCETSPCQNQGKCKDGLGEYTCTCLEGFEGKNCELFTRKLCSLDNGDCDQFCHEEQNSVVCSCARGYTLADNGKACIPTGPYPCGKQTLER
T1 sequence (P00742 235-488 limits assumed): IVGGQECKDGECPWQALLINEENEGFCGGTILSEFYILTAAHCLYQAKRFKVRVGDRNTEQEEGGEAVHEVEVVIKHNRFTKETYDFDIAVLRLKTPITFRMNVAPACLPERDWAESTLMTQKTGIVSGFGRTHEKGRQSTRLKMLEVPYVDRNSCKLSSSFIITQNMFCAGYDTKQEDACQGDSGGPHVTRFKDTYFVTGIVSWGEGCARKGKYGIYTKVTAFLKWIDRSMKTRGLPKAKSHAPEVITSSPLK

As a reminder, the inhibition is the percentage by which the read-out fell short of the control. As a reminder, the inhibition in vivo is the change of the read-out against control, counted positive when it falls. High values mean a response far below the control, low ones a response near the control. The IC50 is the concentration that inhibits the measured activity by half. Consider `COc1ccc(-n2nc(-n3cnnc3CN3CCOCC3)c3c2C(=O)N(c2ccc(N4CCCCC4=O)cc2)CC3)cc1`, for which the inhibition on Coagulation factor X [1] turned out to be 99%; at Coagulation factor X [5] it was 94.5%. In the assay on Rattus norvegicus, this molecule returned an inhibition in vivo at 10 mg/kg of 98%. In addition, the IC50 on Coagulation factor X [2] worked out at 0.14 µM. The 2aPTT was 1.2 µM in the assay on Plasma [3] and 0.7 µM in the assay on Plasma [4]. The figures for the 2PT in the assay on Plasma [6] and in the assay on Plasma [7] were 0.5 µM and 0.9 µM, respectively.
As to `COc1ccc(-n2nc(C3=NCCCN3)c3c2C(=O)N(c2ccc(N4CCCCC4=O)cc2)CC3)cc1`, the results for the 2aPTT with Plasma [3] and in the assay with Plasma [4] were 15.4 µM and 13.5 µM, respectively. Moreover, the values for the 2PT in the assay with Plasma [6] and in the assay with Plasma [7] were 9.4 µM and 10.8 µM, respectively.
Take `COc1ccc(-c2ncn(Cc3nn(-c4ccc(OC)cc4)c4c3CCN(c3ccc(N5CCCCC5=O)cc3)C4=O)n2)cc1`: the results for the inhibition on Coagulation factor X [1] and at Coagulation factor X [5] were 76.4% and 66.1%, respectively. For the same molecule, the 2aPTT in the assay on Plasma [3] came to 1.7 µM; in the assay on Plasma [4] it was 1.1 µM. Moreover, the 2PT was found to be 0.8 µM with Plasma [6] and 1.2 µM in the assay on Plasma [7].
For `COc1ccc(-n2nc(-n3cnnc3N)c3c2C(=O)N(c2ccc(N4CCCCC4=O)cc2)CC3)cc1`, the results for the 2aPTT with Plasma [3] and with Plasma [4] were 9.1 µM and 8.3 µM, respectively. Moreover, the 2PT in the assay with Plasma [6] turned out to be 4.1 µM; in the assay on Plasma [7] it was 5.9 µM.
For `COc1ccc(-n2nc(-n3cnnc3)c3c2C(=O)N(c2ccc(N4CCCCC4=O)cc2)CC3)cc1`, the 2aPTT in the assay with Plasma [3] is 13.7 µM; with Plasma [4] it was 10 µM. Also, the 2PT is 4.9 µM with Plasma [6] and 5.7 µM in the assay on Plasma [7].
Consider `COc1ccc(-n2nc(Cn3cnc(-c4ccc(Cl)cc4)n3)c3c2C(=O)N(c2ccc(N4CCCCC4=O)cc2)CC3)cc1`, for which the 2aPTT stood at 5 µM with Plasma [3] and 3.6 µM in the assay on Plasma [4]. Also, the 2PT was determined as 1.9 µM in the assay with Plasma [6] and 3.5 µM in the assay on Plasma [7].
For `COc1ccc(-n2nc(Cn3nnc4ccccc43)c3c2C(=O)N(c2ccc(N4CCCCC4=O)cc2)CC3)cc1`, the 2aPTT with Plasma [3] came out at 39.1 µM; in the assay with Plasma [4] it was 31.6 µM. Moreover, the values for the 2PT with Plasma [6] and in the assay on Plasma [7] were 25.2 µM and 29.4 µM, respectively.
On to `COc1ccc(-n2nc(-n3cnnc3C)c3c2C(=O)N(c2ccc(N4CCCCC4=O)cc2)CC3)cc1`, for which the values for the inhibition on Coagulation factor X [1] and on Coagulation factor X [5] were 65.2% and 55.1%, respectively. In addition, the 2aPTT in the assay with Plasma [3] amounted to 3 µM; in the assay on Plasma [4], 2.8 µM. Moreover, the 2PT in the assay with Plasma [6] was 1.2 µM; in the assay with Plasma [7], 1.7 µM.
Take `COc1ccc(-n2nc(C3=NCCN3)c3c2C(=O)N(c2ccc(N4CCCCC4=O)cc2)CC3)cc1`: the results for the 2aPTT with Plasma [3] and in the assay with Plasma [4] were 12.5 µM and 11.8 µM, respectively. The figures for the 2PT in the assay with Plasma [6] and in the assay with Plasma [7] were 6.2 µM and 7.5 µM, respectively.
For the molecule `COc1ccc(-n2nc(Cn3cc(C(N)=O)nn3)c3c2C(=O)N(c2ccc(N4CCCCC4=O)cc2)CC3)cc1`, the results for the 2aPTT in the assay with Plasma [3] and with Plasma [4] were 5.2 µM and 3.1 µM, respectively. The 2PT in the assay with Plasma [6] was 1.4 µM; with Plasma [7] it was 2.1 µM.
In the case of `COc1ccc(-n2nc(C3=NCCCCN3)c3c2C(=O)N(c2ccc(N4CCCCC4=O)cc2)CC3)cc1`, the 2aPTT is 26.9 µM with Plasma [3] and 24.3 µM with Plasma [4]. Further, the values for the 2PT with Plasma [6] and with Plasma [7] were 10.9 µM and 12.1 µM, respectively.
Take `COc1ccc(-n2nc(Cn3nc(-c4ccccc4)[nH]c3=O)c3c2C(=O)N(c2ccc(N4CCCCC4=O)cc2)CC3)cc1`: the 2aPTT came out at 29.8 µM with Plasma [3] and 27.1 µM in the assay on Plasma [4]. The 2PT is 11.7 µM in the assay with Plasma [6] and 12.4 µM in the assay with Plasma [7].
For the molecule `COc1ccc(-n2nc(Cn3cnc(-c4cccnc4)n3)c3c2C(=O)N(c2ccc(N4CCCCC4=O)cc2)CC3)cc1`, the 2aPTT with Plasma [3] stood at 5.2 µM; in the assay with Plasma [4] it was 4.3 µM. Also, the 2PT stood at 2 µM with Plasma [6] and 3.2 µM in the assay with Plasma [7].
The corresponding values for `COc1ccc(-n2nc(-n3cnnn3)c3c2C(=O)N(c2ccc(N4CCCCC4=O)cc2)CC3)cc1` are 8.2 µM, 7.3 µM, 4.2 µM and 5.7 µM.
On to `COc1ccc(-n2nc(C3=NCCN3C)c3c2C(=O)N(c2ccc(N4CCCCC4=O)cc2)CC3)cc1`, for which the 2aPTT in the assay on Plasma [3] stood at 12 µM; in the assay with Plasma [4] it was 10.5 µM. Moreover, the figures for the 2PT in the assay with Plasma [6] and in the assay on Plasma [7] were 8.8 µM and 9.6 µM, respectively.
The corresponding values for `CCN(CC)Cc1nncn1-c1nn(-c2ccc(OC)cc2)c2c1CCN(c1ccc(N3CCCCC3=O)cc1)C2=O` are 11.5 µM, 9.6 µM, 7.2 µM and 8 µM.
On to `COc1ccc(-n2nc(Cn3cc(C#N)nn3)c3c2C(=O)N(c2ccc(N4CCCCC4=O)cc2)CC3)cc1`, for which the inhibition on Coagulation factor X [1] is 94%; on Coagulation factor X [5], 86.7%. This molecule also gave an inhibition in vivo at 10 mg/kg in the assay with Rattus norvegicus of 89%. Besides, the IC50 on Coagulation factor X [2] is 0.36 µM. In addition, the 2aPTT with Plasma [3] is 1.5 µM; in the assay on Plasma [4], 1 µM. Further, the results for the 2PT in the assay on Plasma [6] and in the assay with Plasma [7] were 0.7 µM and 0.9 µM, respectively.
On to `COc1ccc(-n2nc(C(N)=O)c3c2C(=O)N(c2ccc(N4CCCCC4=O)cc2)CC3)cc1` [APIXABAN], for which, in the assay with Rattus norvegicus, the inhibition in vivo at 10 mg/kg came out at 95%. Besides, the 2aPTT with Plasma [3] stood at 1.4 µM; in the assay with Plasma [4] it was 0.9 µM. The 2PT with Plasma [6] came out at 0.8 µM; with Plasma [7], 1 µM.
As to `COc1ccc(-n2nc(Cn3cnc(-c4ccncc4)n3)c3c2C(=O)N(c2ccc(N4CCCCC4=O)cc2)CC3)cc1`, the 2aPTT turned out to be 2.1 µM in the assay with Plasma [3] and 2.3 µM with Plasma [4]. For the same molecule, the 2PT in the assay with Plasma [6] was determined as 1.6 µM; in the assay on Plasma [7], 1.9 µM.
Regarding `COc1ccc(-n2nc(Cn3cnc(-c4ccc(F)cc4)n3)c3c2C(=O)N(c2ccc(N4CCCCC4=O)cc2)CC3)cc1`, the inhibition at Coagulation factor X [1] amounted to 70.3%; on Coagulation factor X [5], 60.6%. In addition, the 2aPTT was determined as 3.1 µM in the assay with Plasma [3] and 2.3 µM with Plasma [4]. Moreover, the values for the 2PT with Plasma [6] and in the assay with Plasma [7] were 0.9 µM and 2.1 µM, respectively.
In the case of `COc1ccc(-n2nc(-n3cnnc3CN3CCCC3)c3c2C(=O)N(c2ccc(N4CCCCC4=O)cc2)CC3)cc1`, the 2aPTT in the assay on Plasma [3] came to 18 µM; with Plasma [4] it was 15.6 µM. The 2PT was 7.6 µM in the assay on Plasma [6] and 8.4 µM in the assay on Plasma [7].
On to `COc1ccc(-n2nc(Cn3cnc(-c4ccccc4)n3)c3c2C(=O)N(c2ccc(N4CCCCC4=O)cc2)CC3)cc1`, for which the results for the 2aPTT with Plasma [3] and in the assay with Plasma [4] were 5 µM and 3.6 µM, respectively. The 2PT in the assay with Plasma [6] was determined as 2.4 µM; in the assay with Plasma [7], 3.4 µM.
The like results for `COc1ccc(-n2nc(C3=NC(C)CN3)c3c2C(=O)N(c2ccc(N4CCCCC4=O)cc2)CC3)cc1` (stereo not given) were, in that order, 17.1 µM, 14.6 µM, 8.9 µM and 10 µM.
Turning to `COc1ccc(-c2nn(Cc3nn(-c4ccc(OC)cc4)c4c3CCN(c3ccc(N5CCCCC5=O)cc3)C4=O)c(=O)[nH]2)cc1`, the 2aPTT is 23.2 µM with Plasma [3] and 19.5 µM with Plasma [4]. Further, the 2PT was 17.7 µM in the assay on Plasma [6] and 19.3 µM in the assay with Plasma [7].
Take `COc1ccc(-n2nc(Cn3ccnn3)c3c2C(=O)N(c2ccc(N4CCCCC4=O)cc2)CC3)cc1`: the 2aPTT in the assay on Plasma [3] was 3.9 µM; in the assay with Plasma [4], 3.7 µM. For the same molecule, the results for the 2PT in the assay with Plasma [6] and with Plasma [7] were 2.4 µM and 2.1 µM, respectively.
